# Measurements reported in patent publication US20110098177A1, “METHODS AND COMPOSITIONS OF PLANT MICRONUTRIENTS” (NOVUS INTERNATIONAL INC., priority 2006, published 2011).
# Like-named read-outs stand apart in the source and are kept apart here.
# Key:
# Type in all cases: in vivo
# Florida-47 tomato = test: Foliar nutrient concentration at 6 WAT, greenhouse Fall 2007, tomato; conditions: Example 2; crop not specified (tomato / bell pepper)
# Protocol: The following experiments were performed in a green house during the fall of 2007 at GCREC, Balm, University of Florida. Fifteen products, at 3 different application rates were examined. The plot size was 2-gallon pots. Crop set-up, procedures and variables were as follows.
# Transplants of ‘Florida-47’ tomato and ‘Aristotle’ bell pepper plants in the 4-true leaf stage (about 6 inches tall) were planted in 2-gal pots on Aug. 27, 2007. Pots were filled with a commercially available planting medium. This medium was selected based on the mineral composition of the products to be applied without providing significant nutritional inputs to the crops. Irrigation was provided with drip lines delivering between 0.50 and 0.33 gal/day/pot for tomato and bell pepper, respectively, and the crops were irrigated three times per day. No foliar pesticides were necessary. […]
# Medium nutrient concentration was determined 1 week before treatment. […] The foliar tissue analysis was performed at 6 WAT and the concentration of N, P, K, Mg, Ca, S, B, Zn, Mn, Fe, and Cu was determined by a commercial laboratory. Plant toxicity was determined at 4 WAT by using a 0-10 visual scale, where 0=no visible damage and 10=total plant death. […]
# Data were analyzed using a general linear model, and means were separated using orthogonal contrasts at the 5% significance level.
# Tygress tomato plants [1] = test: Foliar nutrient concentration at 7 WAT, greenhouse tomato spring 2009 (Examples 13-15); conditions: tomato leaves 1 week after treatment
# Protocol: (§1) The following experiments were performed in a green house during the spring of 2009 at GCREC, Balm, University of Florida. Crop set-up, procedures and variables were as follows.
# (§2) Transplants of ‘Tygress’ tomato plants were planted in 2-gallon pots filled with commercial planting medium with nutrient concentration of Fe, Zn, Mn, Cu being negligible and insufficient for crop growth. Irrigation and non-micronutrient fertilizer were provided daily through microsprinklers at recommended rates for tomato production in Florida. No pesticides were used. Treatments were as described in Tables 42, 43, and 44 below. BIOX-Cu was compared to Cu-sulfate, BIOX-EDC, and BIOX-O; and BIOX-Fe was compared to Fe-sulfate and BIOX-EDF. BIOX-MEZ is Ca-HMTBA.
# (§3) Treatments were applied at 6 WAT (weeks after transplanting) using a water volume of 200 mL/plant. Deionized water was used for foliar applications. A non-ionic surfactant was added. Other nutrients were applied as appropriate under non-limiting conditions.
# Foliar tissue nutrient analysis was performed at 3 WAT (i.e., 3 weeks before treatment) and 7 WAT (i.e., 1 weeks after treatment) on the non-applied newest leaves. The concentrations of N, P, K, Mg, Ca, B, Zn, Mn, Fe, and Cu in the foliar tissue were determined by a commercial laboratory. There were no significant differences between the foliar nutrient concentrations of any of the treatment groups prior to treatment.
# (§4) Experimental design was a randomized complete block design with 6 replications. Data were analyzed using a general linear model, and means were separated using an LSD test at the 5% significance level.
# Tygress tomato plants [2] = test: Yields of tomato fruits, greenhouse spring 2009 (Examples 13-15)
# Protocol: as §1, §2, §3
# Marketable fruit were collected three times during the growing season, starting at 10 WAT (4 weeks after the initial treatment). Tomato fruit was graded as marketable and non-marketable. Marketable fruit was sized as extra-large, large, and medium. Non-marketable fruit were harvested and number and weight recorded but not sized.
# as §4
# Tygress tomato plants [3] = conditions: for Toxicity (0-10): 0=no injury, 10=plant death
# Protocol: as §1, §2, §3
# Toxicity of the treatments was assessed by rating foliar tissue using a visual scale, where 0=no injury and 10=plant death.
# as §4
# [4] = BIOX-Cu at 0.46 and 0.55 lb/acre, Cu-sulfate at 0.8 lb/acre, BIOX-EDC at 0.4 lb/acre
molecule,measurement,setting,value
"CSCCC(O)C(=O)[O-].CSCCC(O)C(=O)[O-].[Cu+2] (centres unmarked) [BIOX-Cu, Cu-HMTBA]",Foliar Cu relative to the non-Cu control,Florida-47 tomato,about 4 times
same,Foliar Cu concentration,Tygress tomato plants [1]; Cu 0.14 lb/acre,72 ppm
same,Foliar Cu concentration,Tygress tomato plants [1]; Cu 0.28 lb/acre,91 ppm
same,Foliar Cu concentration,Tygress tomato plants [1]; Cu 0.46 lb/acre,208 ppm
same,Foliar Cu concentration,Tygress tomato plants [1]; Cu 0.55 lb/acre,397 ppm
same,"Marketable tomato yields compared to non-treated control, statement",Tygress tomato plants [2]; [4],did not alter marketable yields relative to the non-treated control
same,"Marketable tomato yields compared to non-treated control, statement",Tygress tomato plants [2]; BIOX-Cu at the 0.14 and 0.28 lb/acre levels,significantly increased marketable tomato yields
same,Marketable yield,Tygress tomato plants [2]; Cu 0.14 lb/acre,2350 a g/plant
same,Marketable yield,Tygress tomato plants [2]; Cu 0.28 lb/acre,2500 a g/plant
same,Marketable yield,Tygress tomato plants [2]; Cu 0.46 lb/acre,1250 b g/plant
same,Marketable yield,Tygress tomato plants [2]; Cu 0.55 lb/acre,1700 b g/plant
same,"Toxicity compared to non-treated control plants, statement",Tygress tomato plants [3]; [4],increased levels of toxicity
same,Toxicity (0-10),Tygress tomato plants [3]; Cu 0.14 lb/acre,0
same,Toxicity (0-10),Tygress tomato plants [3]; Cu 0.28 lb/acre,1
same,Toxicity (0-10),Tygress tomato plants [3]; Cu 0.46 lb/acre,5
same,Toxicity (0-10),Tygress tomato plants [3]; Cu 0.55 lb/acre,6
same,"Toxicity, statement",Tygress tomato plants [3]; the two low levels of BIOX-Cu (0.14 and 0.28 lb/acre),no toxic effects
"CSCCC(O)C(=O)[O-].CSCCC(O)C(=O)[O-].[Zn+2] (centres unmarked) [BIOX-Z, Zn-HMTBA]",Foliar Zn concentration relative to the non-Zn control,Florida-47 tomato,approximately 3 times
Fe-HMTBA [BIOX-Fe],Foliar Fe concentration,Tygress tomato plants [1]; Fe 0.28 lb/acre,249 ppm
same,Foliar Fe concentration,Tygress tomato plants [1]; Fe 0.57 lb/acre,388 ppm
same,Foliar Fe concentration,Tygress tomato plants [1]; Fe 1.12 lb/acre,517 ppm
same,Foliar Fe concentration,Tygress tomato plants [1]; Fe 1.74 lb/acre,453 ppm
same,Foliar Fe concentration,Tygress tomato plants [1]; Fe 2.3 lb/acre,383 ppm
same,"Marketable tomato yields compared to non-treated control, statement","Tygress tomato plants [2]; BIOX-Fe at all levels, Fe-sulfate at 2.0 lb/acre, BIOX-EDF at 0.3 lb/acre",significantly higher marketable tomato yields than the non-treated control
same,Marketable yield,Tygress tomato plants [2]; Fe 0.28 lb/acre,1750 g/plant
same,Marketable yield,Tygress tomato plants [2]; Fe 0.57 lb/acre,1900 g/plant
same,Marketable yield,Tygress tomato plants [2]; Fe 1.12 lb/acre,2100 g/plant
same,Marketable yield,Tygress tomato plants [2]; Fe 1.74 lb/acre,1900 g/plant
same,Marketable yield,Tygress tomato plants [2]; Fe 2.3 lb/acre,2400 g/plant
same,Toxicity (0-10),Tygress tomato plants [3]; Fe 0.28 lb/acre,0
same,Toxicity (0-10),Tygress tomato plants [3]; Fe 0.57 lb/acre,0
same,Toxicity (0-10),Tygress tomato plants [3]; Fe 1.12 lb/acre,1
same,Toxicity (0-10),Tygress tomato plants [3]; Fe 1.74 lb/acre,1
same,Toxicity (0-10),Tygress tomato plants [3]; Fe 2.3 lb/acre,2
same,"Toxicity relative to the non-treated control, statement","Tygress tomato plants [3]; all levels of BIOX-Fe, Fe-sulfate at 2.0 lb/acre, BIOX-EDF at 0.3 lb/acre",no increased toxicity relative to the non-treated control
